Measurements reported in patent US20100184684A1, “ANTIBACTERIAL AND ANTIFUNGAL PEPTIDES” (C3 JIAN, INC., priority 2009, published 2010).
≈ marks a conversion by molar mass, not a printed value. Read-outs that look alike come from different tables or passages of the source. Peptide text beside a SMILES is read from it.

How the values were obtained:
[1] = test system: S. pneumoniae; type: cell-based, Streptococcus pneumoniae
Method: (§1) In certain embodiments the MIC assays are performed as described herein in the Examples. For each organism, the media and growth conditions utilized is detailed in Table 8.
(§2) In certain embodiments the MIC assays are performed as follows: For each organism, the media and growth conditions utilized is detailed in Table 8.

[2] = test system: A. niger; type: cell-based, Aspergillus niger
Method: as §1, §2

[3] = test system: MRSA; type: cell-based, Staphylococcus aureus
Method: as §1, §2

[4] = test system: B. subtilis; type: cell-based, Bacillus subtilis
Method: as §1, §2

[5] = test system: T. rubrum; type: cell-based, Trichophyton rubrum
Method: as §1, §2

[6] = test system: S. epidermidis; type: cell-based
Method: as §1, §2

[7] = S. pneumoniae, TSB supplemented with 5% yeast extract, 37° C., 10% CO2, 10^6 CFU/ml

CSCC[C@H](NC(=O)[C@H](CCC(=O)O)NC(=O)[C@H](CO)NC(=O)[C@@H](N)CC(C)C)C(=O)N[C@@H](CCC(=O)O)C(=O)N[C@@H](CCCNC(=N)N)C(=O)N[C@@H](CCCNC(=N)N)C(=O)N[C@@H](CCCNC(=N)N)C(=O)N[C@@H](CC(C)C)C(=O)N[C@@H](CCCNC(=N)N)C(=O)N[C@@H](CCCCN)C(=O)N[C@@H](CCCNC(=N)N)C(=O)N[C@@H](C)C(=O)O [PF-529] (H-LSEMERRRLRKRA-OH; N-terminus and C-terminus assumed)
MIC [1]: 50 µM (≈ 85.1 µg/mL)
MIC [2]: 50 µM (≈ 85.1 µg/mL)

CC(C)C[C@H](NC(=O)CNC(=O)[C@@H](N)CC(C)C)C(=O)N[C@H](C(=O)N[C@@H](C)C(=O)NCC(=O)N[C@H](C(=O)N[C@@H](C)C(=O)N[C@@H](Cc1ccc(O)cc1)C(=O)N[C@@H](C)C(=O)N[C@@H](C)C(=O)N[C@@H](CCC(N)=O)C(=O)N1CCC[C@H]1C(=O)N[C@H](C(=O)N[C@@H](CC(N)=O)C(=O)N[C@@H](CCC(N)=O)C(=O)N1CCC[C@H]1C(=O)N[C@H](C(=O)N[C@@H](CC(N)=O)C(=O)N[C@@H](CCC(N)=O)C(=O)N1CCC[C@H]1C(=O)N[C@H](C(=O)N[C@@H](CC(N)=O)C(=O)N[C@@H](CCC(N)=O)C(=O)N1CCC[C@H]1C(=O)N[C@H](C(=O)N[C@@H](CC(N)=O)C(=O)N[C@@H](CCC(N)=O)C(=O)N1CCC[C@H]1C(=O)N[C@H](C(=O)N[C@@H](CC(N)=O)C(=O)N[C@@H](CCC(N)=O)C(=O)N1CCC[C@H]1C(=O)N[C@H](C(=O)N[C@@H](CC(N)=O)C(=O)N[C@@H](CCC(N)=O)C(=O)N1CCC[C@H]1C(=O)N[C@@H](CCCNC(=N)N)C(=O)N[C@@H](Cc1c[nH]c2ccccc12)C(=O)O)[C@@H](C)O)[C@@H](C)O)[C@@H](C)O)[C@@H](C)O)[C@@H](C)O)[C@@H](C)O)C(C)C)[C@@H](C)O [PF-520] (H-LGLTAGVAYAAQPTNQPTNQPTNQPTNQPTNQPTNQPRW-OH; N-terminus and C-terminus assumed)
MIC [1, 7]: 50 µM (≈ 211 µg/mL)

CC(C)C[C@H](NC(=O)[C@H](CC(C)C)NC(=O)[C@H](Cc1c[nH]cn1)NC(=O)[C@H](CC(N)=O)NC(=O)[C@H](CCCCN)NC(=O)[C@H](CC(C)C)NC(=O)[C@H](CO)NC(=O)[C@H](CCCNC(=N)N)NC(=O)[C@H](CO)NC(=O)[C@H](C)NC(=O)[C@H](CCC(N)=O)NC(=O)[C@H](CCCCN)NC(=O)[C@H](CO)NC(=O)[C@H](C)NC(=O)[C@H](CCC(N)=O)NC(=O)[C@H](CCCCN)NC(=O)[C@H](CO)NC(=O)[C@H](C)NC(=O)[C@H](CCC(N)=O)NC(=O)[C@H](CCCCN)NC(=O)[C@H](CO)NC(=O)[C@H](C)NC(=O)[C@H](CCC(N)=O)NC(=O)[C@H](CCCCN)NC(=O)[C@H](CO)NC(=O)[C@H](C)NC(=O)[C@H](CCC(N)=O)NC(=O)[C@H](CCCCN)NC(=O)[C@H](CO)NC(=O)[C@H](C)N)C(=O)O [PF-523] (H-ASKQASKQASKQASKQASKQASRSLKNHLL-OH; N-terminus and C-terminus assumed)
MIC [1]: 50 µM (≈ 161 µg/mL)

CC(C)[C@H](NC(=O)[C@H](C)NC(=O)[C@H](Cc1ccc(O)cc1)NC(=O)[C@@H](N)CC(N)=O)C(=O)N[C@H](C(=O)N[C@@H](CO)C(=O)N[C@@H](Cc1c[nH]cn1)C(=O)N[C@H](C(=O)O)[C@@H](C)O)C(C)C [PF-209] (H-NYAVVSHT-OH; N-terminus and C-terminus assumed)
MIC [3]: 50 µM (≈ 44.5 µg/mL)

CSCC[C@H](NC(=O)[C@H](CCCNC(=N)N)NC(=O)[C@H](CCCNC(=N)N)NC(=O)[C@H](CC(C)C)NC(=O)[C@H](CCCNC(=N)N)NC(=O)[C@H](CCC(=O)O)NC(=O)[C@@H](NC(=O)[C@H](CS)NC(=O)CNC(=O)[C@H](CCCNC(=N)N)NC(=O)[C@@H](N)CCCNC(=N)N)[C@@H](C)O)C(=O)N[C@@H](C)C(=O)N[C@@H](CCCNC(=N)N)C(=O)N[C@@H](CCCNC(=N)N)C(=O)N[C@@H](CC(N)=O)C(=O)N[C@@H](C)C(=O)N[C@@H](Cc1c[nH]c2ccccc12)C(=O)N[C@@H](CC(=O)O)C(=O)N[C@@H](CC(C)C)C(=O)N[C@@H](Cc1ccc(O)cc1)C(=O)N[C@@H](C)C(=O)N[C@@H](CCC(=O)O)C(=O)N[C@@H](Cc1c[nH]cn1)C(=O)N[C@@H](Cc1ccccc1)C(=O)N[C@@H](Cc1ccc(O)cc1)C(=O)O [PF-148] (H-RRGCTERLRRMARRNAWDLYAEHFY-OH; N-terminus and C-terminus assumed)
MIC [4]: 50 µM (≈ 161 µg/mL)
MIC [2]: 50 µM (≈ 161 µg/mL)

CC[C@H](C)[C@H](NC(=O)[C@H](CCCNC(=N)N)NC(=O)[C@H](CCCNC(=N)N)NC(=O)[C@H](CCCNC(=N)N)NC(=O)[C@@H](NC(=O)[C@H](CCSC)NC(=O)[C@H](CC(=O)O)NC(=O)[C@H](C)NC(=O)[C@H](CCSC)NC(=O)[C@H](C)NC(=O)[C@@H](NC(=O)[C@H](CC(C)C)NC(=O)[C@H](CCCCN)NC(=O)[C@H](CO)NC(=O)[C@H](CCC(=O)O)NC(=O)[C@@H](N)CCCNC(=N)N)[C@@H](C)CC)[C@@H](C)CC)C(=O)O [PF-545] (H-RESKLIAMADMIRRRI-OH; N-terminus and C-terminus assumed)
MIC [4]: 25 µM (≈ 49 µg/mL)
MIC [2]: 50 µM (≈ 98 µg/mL)
MIC [3]: 50 µM (≈ 98 µg/mL)

CC[C@H](C)[C@H](NC(=O)[C@H](CC(C)C)NC(=O)[C@@H]1CCCN1C(=O)[C@@H]1CCCN1C(=O)[C@H](CCCCN)NC(=O)[C@@H](NC(=O)[C@H](Cc1ccc(O)cc1)NC(=O)[C@H](CC(C)C)NC(=O)[C@H](CO)NC(=O)[C@H](CCC(N)=O)NC(=O)[C@H](CCSC)NC(=O)[C@@H](N)C(C)C)C(C)C)C(=O)N[C@@H](CC(C)C)C(=O)N[C@H](C(=O)N[C@H](C(=O)N[C@@H](CCCCN)C(=O)N[C@@H](CC(C)C)C(=O)N[C@@H](C)C(=O)N[C@@H](CCC(N)=O)C(=O)N[C@@H](CCC(N)=O)C(=O)N[C@@H](CC(N)=O)C(=O)O)[C@@H](C)O)C(C)C [PF-511] (H-VMQSLYVKPPLILVTKLAQQN-OH; N-terminus and C-terminus assumed)
MIC [1, 7]: 50 µM (≈ 119 µg/mL)

CC(C)C[C@H](NC(=O)[C@H](CCC(N)=O)NC(=O)[C@H](CO)NC(=O)[C@H](CCC(N)=O)NC(=O)[C@H](CC(C)C)NC(=O)[C@@H](N)CO)C(=O)NCC(=O)N1CCC[C@H]1C(=O)N[C@@H](CS)C(=O)N[C@@H](CC(C)C)C(=O)N[C@@H](Cc1c[nH]cn1)C(=O)N[C@@H](CC(=O)O)C(=O)N[C@@H](CCC(N)=O)C(=O)N[C@@H](CCCNC(=N)N)C(=O)N[C@@H](Cc1c[nH]cn1)C(=O)O [PF-448] (H-SLQSQLGPCLHDQRH-OH; N-terminus and C-terminus assumed)
MIC [1]: 50 µM (≈ 85.9 µg/mL)
MIC [2]: 25 µM (≈ 43 µg/mL)

CC[C@H](C)[C@H](NC(=O)[C@H](C)NC(=O)[C@@H]1CCCN1C(=O)[C@H](Cc1ccccc1)NC(=O)[C@@H]1CCCN1C(=O)[C@H](CC(C)C)NC(=O)[C@@H](N)C(C)C)C(=O)N1CCC[C@H]1C(=O)N[C@@H](CC(C)C)C(=O)N[C@@H](CO)C(=O)N[C@@H](CCCNC(=N)N)C(=O)N[C@@H](CCCNC(=N)N)C(=O)N[C@@H](CCCNC(=N)N)C(=O)N[C@@H](C)C(=O)N[C@@H](CS)C(=O)N[C@H](C(=O)N[C@@H](C)C(=O)N[C@@H](C)C(=O)N1CCC[C@H]1C(=O)N[C@@H](CCCNC(=N)N)C(=O)N1CCC[C@H]1C(=O)N[C@@H](CCCNC(=N)N)C(=O)N[C@@H](CO)C(=O)N[C@@H](CCCNC(=N)N)C(=O)N[C@@H](CCC(N)=O)C(=O)N[C@@H](CCCNC(=N)N)C(=O)N[C@@H](C)C(=O)N[C@@H](CO)C(=O)O)C(C)C [PF-168] (H-VLPFPAIPLSRRRACVAAPRPRSRQRAS-OH; N-terminus and C-terminus assumed)
MIC [2]: 50 µM (≈ 156 µg/mL)
MIC [3]: 50 µM (≈ 156 µg/mL)
MIC [5]: 50 µM (≈ 156 µg/mL)

CC[C@H](C)[C@H](NC(=O)[C@H](Cc1ccccc1)NC(=O)[C@@H](NC(=O)[C@H](Cc1ccccc1)NC(=O)[C@H](CC(C)C)NC(=O)[C@H](CC(=O)O)NC(=O)[C@@H](NC(=O)[C@H](CS)NC(=O)[C@@H](NC(=O)[C@H](CCCNC(=N)N)NC(=O)[C@H](CC(C)C)NC(=O)[C@@H](NC(=O)[C@@H](N)CC(C)C)C(C)C)[C@@H](C)CC)[C@@H](C)O)[C@@H](C)O)C(=O)N[C@@H](CCCCN)C(=O)N[C@@H](Cc1c[nH]c2ccccc12)C(=O)N[C@H](C(=O)N[C@H](C(=O)N[C@@H](CCCCN)C(=O)N[C@@H](CCC(N)=O)C(=O)N[C@@H](CCCNC(=N)N)C(=O)N[C@@H](CCCCN)C(=O)N[C@@H](CO)C(=O)O)[C@@H](C)CC)[C@@H](C)O [PF-497] (H-LVLRICTDLFTFIKWTIKQRKS-OH; N-terminus and C-terminus assumed)
MIC [4]: 50 µM (≈ 136 µg/mL)

CC[C@H](C)[C@H](NC(=O)[C@H](CCC(=O)O)NC(=O)[C@@H]1CCCN1C(=O)[C@H](CCSC)NC(=O)[C@H](Cc1ccccc1)NC(=O)[C@@H](N)CO)C(=O)N[C@@H](CCC(N)=O)C(=O)N[C@@H](CCCCN)C(=O)N[C@@H](CC(N)=O)C(=O)N[C@H](C(=O)N[C@H](C(=O)N1CCC[C@H]1C(=O)N[C@H](C(=O)N[C@@H](CCC(N)=O)C(=O)N[C@@H](CCSC)C(=O)N[C@@H](CCCCN)C(=O)O)[C@@H](C)O)[C@@H](C)CC)[C@@H](C)O [PF-512] (H-SFMPEIQKNTIPTQMK-OH; N-terminus and C-terminus assumed)
MIC [1, 7]: 50 µM (≈ 94.7 µg/mL)

CC[C@H](C)[C@H](NC(=O)[C@H](CC(N)=O)NC(=O)[C@@H](NC(=O)[C@H](Cc1ccccc1)NC(=O)[C@H](CCC(=O)O)NC(=O)CNC(=O)[C@H](CCC(N)=O)NC(=O)[C@H](Cc1ccccc1)NC(=O)[C@@H](N)CCCCN)[C@@H](C)O)C(=O)NCC(=O)N[C@@H](CCC(N)=O)C(=O)N[C@@H](CO)C(=O)N[C@@H](Cc1ccc(O)cc1)C(=O)N[C@H](C(=O)N[C@H](C(=O)N[C@@H](CO)C(=O)N[C@@H](C)C(=O)N[C@@H](CO)C(=O)N[C@@H](Cc1c[nH]cn1)C(=O)N[C@@H](CCSC)C(=O)N[C@@H](CO)C(=O)N[C@H](C(=O)N[C@@H](CO)C(=O)N[C@@H](CC(C)C)C(=O)N[C@@H](CC(N)=O)C(=O)N[C@H](C(=O)NCC(=O)N[C@@H](CCCCN)C(=O)O)[C@@H](C)O)[C@@H](C)O)C(C)C)[C@@H](C)CC [PF-583] (H-KFQGEFTNIGQSYIVSASHMSTSLNTGK-OH; N-terminus and C-terminus assumed)
MIC [6]: 50 µM (≈ 152 µg/mL)
MIC [3]: 50 µM (≈ 152 µg/mL)
